From patent EP3222712A1, “ALCOHOL DEHYDROGENASE FROM PICHIA PASTORIS AND USE THEREOF” (priority 2016, dated 2017)
Marks after values point to notes of the source that are not given here. Values belong to the molecule of their own block, whether it stands above or below them.

How the values were obtained:
[1] = molecular target: alcohol dehydrogenase from Pichia pastoris (PPADH) (Komagataella phaffii, UniProt C4R4L0); assay: kinetic parameters of purified PPADH by photometry; type: biochemical, Pichia pastoris GS 115
Description: (§1) In order to determine the kinetic parameters of the recombinant PPADH, purified enzyme was manufactured as described in example 4b). Afterwards the described test for reductive activity was used. All parameters such as 100 mM tris HCl buffer (pH 7), 0.2 mM NADPH, and 10 µl enzyme (purified PPADH) were kept constant, except that concentration of substrate and concentration of co-factor were varied. The kinetic parameters were calculated using the software GraphPad Prism5 based on a non-linear ,fitting"-algorithm. Table 4: kinetic parameters of purified PPADH regarding benzaldehyde, racemic CF3-ketone as substrates and the co-factor NADPH determined by photometry

[2] = tested on: alcohol dehydrogenase from Pichia pastoris (PPADH); assay: biotransformation by purified PPADH with GDH co-factor regeneration, gas chromatography; type: biochemical; settings: 2 hours reaction time
[3] = substrate: CC(=O)CC(O)(c1ccccc1)C(F)(F)F; assay: kinetic parameters of purified PPADH by photometry; type: biochemical, Pichia pastoris GS 115
Description: as §1

[4] = substrate: O=Cc1ccccc1; assay: kinetic parameters of purified PPADH by photometry; type: biochemical, Pichia pastoris GS 115; settings: other: purified PPADH, tris HCl pH 7, non-linear fitting
Description: as §1

[5] = other: purified PPADH, tris HCl pH 7, non-linear fitting

- Vmax ([1]; tris HCl pH 7): 94.2 U/mg
- kcat ([1]; tris HCl pH 7): 19.5 s⁻¹
- Km ([1]; tris HCl pH 7, non-linear fitting): 48.3 µM
Molecule: NC(=O)C1=CN([C@@H]2O[C@H](COP(=O)(O)OP(=O)(O)OC[C@H]3O[C@@H](n4cnc5c(N)ncnc54)[C@H](OP(=O)(O)O)[C@@H]3O)[C@@H](O)[C@H]2O)C=CC1 [NADPH]

Molecule: CC(=O)CC(O)(c1ccc(C)cc1)C(F)(F)F (centres unmarked) [Nod364 F3-Enon]
- level of turnover ([2]; CF3-ketone derivatives): +++++ (+++++ = 75 - 100 %)
- turnover ([2]; CF3-ketone derivatives): quant.

Molecule: COc1ccc(C(O)(CC(C)=O)C(F)(F)F)cc1 (centres unmarked) [Nod365 F6]
- level of turnover ([2]; CF3-ketone derivatives): +++++ (+++++ = 75 - 100 %)
- turnover ([2]; CF3-ketone derivatives): quant.

Molecule: COc1ccccc1[C@@](O)(CC(C)=O)C(F)(F)F [Nod-3d]
- level of turnover ([2]; CF3-ketone derivatives): +++++ (+++++ = 75 - 100 %)
- turnover ([2]; CF3-ketone derivatives, alcohol formed related to the reduction of (S)-ketone): 75.8%

Molecule: CC(=O)c1ccccc1 [acetophenone]
- level of turnover ([2]; acetophenone derivatives): ++ (++=5-20%)
- turnover ([2]; acetophenone derivatives, related to the alcohol formed): 7.8%

B1: alcohol dehydrogenase from Pichia pastoris (PPADH) (Komagataella phaffii GS115) (protein)
chain: MVSKVLLTGASGYIAQHITNELLSHGFKVIGTVRRQEQADQLHKQFSEESSVLQKDPSLLTYVLVPDIGASDAFDEVLKSTPDITYVLHTASPFIFNDDRALEDVYLKPAVEGTRNILSAIKKFANDSVKNVVVTSSFAAILNADKFEDKSFIHTEKVWNNNTWDQTKSGDRGVAYIVSKKEAEKAAWDFVEKEKPNFKLTTVNPPYVFGPQKFDASAKKESLNTSAEIVGSLLHTKYPSDDKLFDDPLNLSVDVRDVALYHVLPLLNADLASRRLLVVQSKFSAQRILNIINENFPELKGKIAVGKPEETARVEAIKGPEYNNSVTVGLTGVDPIPLEKTVVDSVKQILRANK
- Km ([3]; other: corrected for 50% (S)-enantiomer in the racemic substrate, pH 7.0): 899 µM
- Km [3, 5]: 1797.0* µM
- Vmax [3, 5]: 46.3 U/mg
- kcat [3, 5]: 6.4 s⁻¹
- kcat/Km [3, 5]: 3.6* s^-1mM^-1
- Km [4]: 3034.0 µM
- Vmax [4]: 98.5 U/mg
- kcat [4]: 25.1 s⁻¹
- kcat/Km [4]: 8300 M⁻¹ s⁻¹
